What is called EC50 is the concentration that produces a half-maximal response.

Bounds are passed on as bounds.

For this assay, the system named is TFEB. Briefly: TFEB Nuclear Translocation Assay. It is filed as cell-based. The following applies: read-out: EC50 of TFEB activation.
For the compound `CC(C)S(=O)(=O)c1ccc(S(=O)(=O)n2nc(N3CCC(OC(F)F)CC34CC4)c3c(Cl)cccc32)cc1` (centres unmarked) [Compound 87, 4-chloro-3-[7-(difluoromethoxy)-4-azaspiro [2.5]octan-4-yl]-1-(4-isopropylsulfonylphenyl) sulfonyl-indazole], the EC50 is not above 1 µM.

For the compound `CC(F)(F)c1ccc(S(=O)(=O)n2nc(N3CCC4(CCO4)CC34CC4)c3c(Cl)cccc32)cc1` (centres unmarked) [Compound 88, 11-[4-chloro-1-[4-(1,1-difluoroethyl)phenyl]sulfonyl-indazol-3-yl]-8-oxa-11-azadispiro [2.1.35.33]undecane], the EC50 was not below 10 µM.

Regarding `O=S(=O)(c1ccc(C2(F)COC2)cc1)n1nc(N2CCN(c3ncc(F)cn3)CC23CC3)c2c(Cl)cccc21` [Compound 89, 4-chloro-1-[4-(3-fluorooxetan-3-yl)phenyl]sulfonyl-3-[7-(5-fluoropyrimidin-2-yl)-4,7-diazaspiro [2.5]octan-4-yl]indazole], the half-maximal effective concentration (EC50) was not above 1 µM.

Consider `CC(C)C(F)(F)c1ccc(S(=O)(=O)n2nc(N3CCN(c4ncc(F)cn4)CC34CC4)c3c(Cl)cccc32)cc1` [Compound 90, 4-chloro-1-[4-(1,1-difluoro-2-methyl-propyl)phenyl]sulfonyl-3-[7-(5-fluoropyrimidin-2-yl)-4,7-diazaspiro [2.5]octan-4-yl]indazole], for which the half-maximal effective concentration (EC50) is not above 1 µM.

Turning to `CC(F)(F)c1ccc(S(=O)(=O)n2nc(N3CCN(c4ncc(F)cn4)CC34CC4)c3c(Cl)cc(F)cc32)cc1` [Compound 91, 4-chloro-1-[4-(1,1-difluoroethyl)phenyl]sulfonyl-6-fluoro-3-[7-(5-fluoropyrimidin-2-yl)-4,7-diazaspiro [2.5]octan-4-yl]indazole], the concentration giving a half-maximal response (EC50) was not above 1 µM.

Take `O=S(=O)(c1ccc(C(F)(F)C2CC2)cc1)n1nc(N2CCN(c3ncc(F)cn3)CC23CC3)c2c(Cl)cccc21` [Compound 92, 4-chloro-1-((4-(cyclopropyldifluoromethyl)phenyl)sulfonyl)-3-(7-(5-fluoropyrimidin-2-yl)-4,7-diazaspiro [2.5]octan-4-yl)-1H-indazole]: the EC50 is not above 1 µM.

Consider `O=S(=O)(c1ccc(SC(F)F)cc1)n1nc(N2CCN(c3ncc(F)cn3)CC23CC3)c2c(Cl)cccc21` [Compound 93, 4-chloro-1-[4-(difluoromethylsulfanyl)phenyl]sulfonyl-3-[7-(5-fluoropyrimidin-2-yl)-4,7-diazaspiro [2.5]octan-4-yl]indazole], for which the EC50 was not above 1 µM.

In the case of `CC(C)(C)c1ccc(S(=O)(=O)n2nc(N3CCN(c4ncc(F)cn4)CC34CC4)c3c(Cl)cccc32)cc1` [Compound 94, 1-((4-(tert-butyl)phenyl)sulfonyl)-4-chloro-3-(7-(5-fluoropyrimidin-2-yl)-4,7-diazaspiro [2.5]octan-4-yl)-1H-indazole], the half-maximal effective concentration (EC50) is not above 1 µM.

In the case of `O=S(=O)(c1ccc(C(F)(F)C(F)F)cc1)n1nc(N2CCN(c3ncc(F)cn3)CC23CC3)c2c(Cl)cccc21` [Compound 95, 4-chloro-3-(7-(5-fluoropyrimidin-2-yl)-4,7-diazaspiro [2.5]octan-4-yl)-1-((4-(1,1,2,2-tetrafluoroethyl)phenyl)sulfonyl)-1H-indazole], the EC50 was not above 1 µM.

As for `CC(C)(CF)c1ccc(S(=O)(=O)n2nc(N3CCN(c4ncc(F)cn4)CC34CC4)c3c(Cl)cccc32)cc1` [Compound 96, 4-chloro-1-[4-(2-fluoro-1,1-dimethyl-ethyl)phenyl]sulfonyl-3-[7-(5-fluoropyrimidin-2-yl)-4,7-diazaspiro [2.5]octan-4-yl]indazole], the concentration giving a half-maximal response (EC50) is not above 1 µM.

With `CC(C)(F)c1ccc(S(=O)(=O)n2nc(N3CCN(c4ncc(F)cn4)CC34CC4)c3c(Cl)cccc32)cc1` [Compound 97, 4-chloro-1-((4-(2-fluoropropan-2-yl)phenyl)sulfonyl)-3-(7-(5-fluoropyrimidin-2-yl)-4,7-diazaspiro [2.5]octan-4-yl)-1H-indazole], the concentration giving a half-maximal response (EC50) was not above 1 µM.

As for `O=S(=O)(c1ccc(C(F)(F)CF)cc1)n1nc(N2CCN(c3ncc(F)cn3)CC23CC3)c2c(Cl)cccc21` [Compound 98, 4-chloro-3-[7-(5-fluoropyrimidin-2-yl)-4,7-diazaspiro [2.5]octan-4-yl]-1-[4-(1,1,2-trifluoroethyl)phenyl]sulfonyl-indazole], the EC50 is not above 1 µM.

`CC(C)(c1ccc(S(=O)(=O)n2nc(N3CCN(c4ncc(F)cn4)CC34CC4)c3c(Cl)cccc32)cc1)C(F)F` [Compound 99, 4-chloro-1-[4-(2,2-difluoro-1,1-dimethyl-ethyl)phenyl]sulfonyl-3-[7-(5-fluoropyrimidin-2-yl)-4,7-diazaspiro[2.5]octan-4-yl]indazole]: the concentration for a half-maximal effect (EC50) is not above 1 µM.

Regarding `CC(C)(C)c1ncc(S(=O)(=O)n2nc(N3CCN(c4ncc(F)cn4)CC34CC4)c3c(Cl)cccc32)cn1` [Compound 100, 1-(2-tert-butylpyrimidin-5-yl) sulfonyl-4-chloro-3-[7-(5-fluoropyrimidin-2-yl)-4,7-diazaspiro [2.5]octan-4-yl]indazole], the concentration giving a half-maximal response (EC50) was not above 1 µM.

For the compound `O=S(=O)(c1ccc(C2(C(F)(F)F)CC2)cc1)n1nc(N2CCN(c3ncc(F)cn3)CC23CC3)c2c(Cl)cccc21` [Compound 101, 4-chloro-3-[7-(5-fluoropyrimidin-2-yl)-4,7-diazaspiro [2.5]octan-4-yl]-1-[4-[1-(trifluoromethyl)cyclopropyl]phenyl]sulfonyl-indazole], the EC50 was not above 1 µM.

Take `CCC(F)(F)c1ccc(S(=O)(=O)n2nc(N3CCN(c4ncc(F)cn4)CC34CC4)c3c(Cl)cccc32)cc1` [Compound 102, 4-chloro-1-[4-(1,1-difluoropropyl)phenyl]sulfonyl-3-[7-(5-fluoropyrimidin-2-yl)-4,7-diazaspiro [2.5]octan-4-yl]indazole]: the concentration giving a half-maximal response (EC50) was not above 1 µM.

For the compound `CC(F)(F)c1ccc(S(=O)(=O)n2nc(N3CCN(c4ncc(F)cn4)CC34CC4)c3c(Cl)ccc(F)c32)cc1` [Compound 103, 4-chloro-1-[4-(1,1-difluoroethyl)phenyl]sulfonyl-7-fluoro-3-[7-(5-fluoropyrimidin-2-yl)-4,7-diazaspiro [2.5]octan-4-yl]indazole], the EC50 is not above 1 µM.

As to `CC(F)(F)c1ccc(S(=O)(=O)n2nc(N3CCC3C(F)(F)F)c3c(Cl)cccc32)cc1` (centres unmarked) [Compound 104, 4-chloro-1-[4-(1,1-difluoroethyl)phenyl]sulfonyl-3-[2-(trifluoromethyl)azetidin-1-yl]indazole], the concentration giving a half-maximal response (EC50) was not above 1 µM.

In the case of `CC(F)(F)c1ccc(S(=O)(=O)n2nc(N3CCN(c4ncc(F)cn4)CC3C(C)(C)F)c3c(Cl)cccc32)cc1` (centres unmarked) [Compound 105, 4-chloro-1-((4-(1,1-difluoroethyl)phenyl)sulfonyl)-3-(2-(2-fluoropropan-2-yl)-4-(5-fluoropyrimidin-2-yl)piperazin-1-yl)-1H-indazole], the concentration giving a half-maximal response (EC50) was not above 1 µM.

Take `CC(F)(F)c1ccc(S(=O)(=O)n2nc(N3CCN(c4ncc(F)cn4)C[C@H]3C(F)(F)F)c3c(Cl)cccc32)cc1` [Compound 106, 4-chloro-1-[4-(1,1-difluoroethyl)phenyl]sulfonyl-3-[(2S)-4-(5-fluoropyrimidin-2-yl)-2-(trifluoromethyl)piperazin-1-yl]indazole]: the EC50 is not above 1 µM.

The record behind these values is patent publication US20250333406A1, “SULFONYL CYCLIC DERIVATIVES, AND COMPOSITIONS AND METHODS THEREOF” (Lysoway Therapeutics, Inc., priority 2023, published 2025).
